Assay results published in the NIST ThermoML archive (doi:10.1021/je050540h).
± gives the expanded uncertainty stated by the source.

Assay: xn = mol fraction of the nth substance listed
Conditions: Liquid; for speed of sound: 7 kPa; for mass density / viscosity: 101 kPa

CCCC(C)O (stereo not drawn) [pentan-2-ol] + C1CCCCC1
speed of sound (293.15 K, x2 = 0): 1250 ± 3 m/s | speed of sound (293.15 K, x2 = 0.0495): 1247 ± 3 m/s | speed of sound (293.15 K, x2 = 0.1002): 1244 ± 3 m/s | speed of sound (293.15 K, x2 = 0.2019): 1238 ± 3 m/s | speed of sound (293.15 K, x2 = 0.3067): 1234 ± 3 m/s | speed of sound (293.15 K, x2 = 0.4011): 1231 ± 3 m/s | speed of sound (293.15 K, x2 = 0.5085): 1230 ± 3 m/s | speed of sound (293.15 K, x2 = 0.6066): 1232 ± 3 m/s | speed of sound (293.15 K, x2 = 0.7118): 1239 ± 3 m/s | speed of sound (293.15 K, x2 = 0.8096): 1247 ± 3 m/s | speed of sound (293.15 K, x2 = 0.9049): 1259 ± 3 m/s | speed of sound (293.15 K, x2 = 0.9557): 1267 ± 3 m/s | mass density (293.15 K, x2 = 0): 809.04 ± 0.47 kg/m3 | viscosity (293.15 K, x2 = 0): 4.001 ± 0.093 mPa·s | mass density (293.15 K, x2 = 0.0495): 806.87 ± 0.47 kg/m3 | viscosity (293.15 K, x2 = 0.0495): 3.606 ± 0.084 mPa·s | mass density (293.15 K, x2 = 0.1002): 804.68 ± 0.47 kg/m3 | viscosity (293.15 K, x2 = 0.1002): 3.195 ± 0.075 mPa·s | mass density (293.15 K, x2 = 0.2019): 800.29 ± 0.47 kg/m3 | viscosity (293.15 K, x2 = 0.2019): 2.516 ± 0.06 mPa·s | mass density (293.15 K, x2 = 0.3067): 796.06 ± 0.47 kg/m3 | viscosity (293.15 K, x2 = 0.3067): 1.922 ± 0.046 mPa·s | mass density (293.15 K, x2 = 0.4011): 792.42 ± 0.48 kg/m3 | viscosity (293.15 K, x2 = 0.4011): 1.583 ± 0.038 mPa·s | mass density (293.15 K, x2 = 0.5085): 788.62 ± 0.48 kg/m3 | viscosity (293.15 K, x2 = 0.5085): 1.317 ± 0.032 mPa·s | mass density (293.15 K, x2 = 0.6066): 785.63 ± 0.48 kg/m3 | viscosity (293.15 K, x2 = 0.6066): 1.17 ± 0.029 mPa·s | mass density (293.15 K, x2 = 0.7118): 782.94 ± 0.48 kg/m3 | viscosity (293.15 K, x2 = 0.7118): 1.067 ± 0.027 mPa·s | mass density (293.15 K, x2 = 0.8096): 780.86 ± 0.48 kg/m3 | viscosity (293.15 K, x2 = 0.8096): 1.045 ± 0.026 mPa·s | mass density (293.15 K, x2 = 0.9049): 779.29 ± 0.48 kg/m3 | viscosity (293.15 K, x2 = 0.9049): 1.009 ± 0.025 mPa·s | mass density (293.15 K, x2 = 0.9557): 778.62 ± 0.48 kg/m3 | viscosity (293.15 K, x2 = 0.9557): 0.997 ± 0.025 mPa·s | speed of sound (298.15 K, x2 = 0): 1232 ± 3 m/s | speed of sound (298.15 K, x2 = 0.0495): 1229 ± 3 m/s | speed of sound (298.15 K, x2 = 0.1002): 1225 ± 3 m/s | speed of sound (298.15 K, x2 = 0.2019): 1218 ± 3 m/s | speed of sound (298.15 K, x2 = 0.3067): 1213 ± 3 m/s | speed of sound (298.15 K, x2 = 0.4011): 1210 ± 3 m/s | speed of sound (298.15 K, x2 = 0.5085): 1209 ± 3 m/s | speed of sound (298.15 K, x2 = 0.6066): 1211 ± 3 m/s | speed of sound (298.15 K, x2 = 0.7118): 1216 ± 3 m/s | speed of sound (298.15 K, x2 = 0.8096): 1224 ± 3 m/s | speed of sound (298.15 K, x2 = 0.9049): 1235 ± 3 m/s | speed of sound (298.15 K, x2 = 0.9557): 1243 ± 3 m/s | mass density (298.15 K, x2 = 0): 805.01 ± 0.48 kg/m3 | viscosity (298.15 K, x2 = 0): 3.273 ± 0.077 mPa·s | mass density (298.15 K, x2 = 0.0495): 802.77 ± 0.48 kg/m3 | viscosity (298.15 K, x2 = 0.0495): 2.969 ± 0.071 mPa·s | mass density (298.15 K, x2 = 0.1002): 800.52 ± 0.48 kg/m3 | viscosity (298.15 K, x2 = 0.1002): 2.658 ± 0.063 mPa·s | mass density (298.15 K, x2 = 0.2019): 796 ± 0.48 kg/m3 | viscosity (298.15 K, x2 = 0.2019): 2.125 ± 0.051 mPa·s | mass density (298.15 K, x2 = 0.3067): 791.67 ± 0.48 kg/m3 | viscosity (298.15 K, x2 = 0.3067): 1.659 ± 0.04 mPa·s | mass density (298.15 K, x2 = 0.4011): 787.98 ± 0.48 kg/m3 | viscosity (298.15 K, x2 = 0.4011): 1.385 ± 0.034 mPa·s | mass density (298.15 K, x2 = 0.5085): 784.11 ± 0.48 kg/m3 | viscosity (298.15 K, x2 = 0.5085): 1.178 ± 0.029 mPa·s | mass density (298.15 K, x2 = 0.6066): 781.09 ± 0.48 kg/m3 | viscosity (298.15 K, x2 = 0.6066): 1.056 ± 0.026 mPa·s | mass density (298.15 K, x2 = 0.7118): 778.32 ± 0.49 kg/m3 | viscosity (298.15 K, x2 = 0.7118): 0.97 ± 0.024 mPa·s | mass density (298.15 K, x2 = 0.8096): 776.18 ± 0.49 kg/m3 | viscosity (298.15 K, x2 = 0.8096): 0.952 ± 0.024 mPa·s | mass density (298.15 K, x2 = 0.9049): 774.54 ± 0.49 kg/m3 | viscosity (298.15 K, x2 = 0.9049): 0.924 ± 0.023 mPa·s | mass density (298.15 K, x2 = 0.9557): 773.86 ± 0.49 kg/m3 | viscosity (298.15 K, x2 = 0.9557): 0.912 ± 0.023 mPa·s | speed of sound (303.15 K, x2 = 0): 1214 ± 3 m/s | speed of sound (303.15 K, x2 = 0.0495): 1210 ± 3 m/s | speed of sound (303.15 K, x2 = 0.1002): 1206 ± 3 m/s | speed of sound (303.15 K, x2 = 0.2019): 1199 ± 3 m/s | speed of sound (303.15 K, x2 = 0.3067): 1193 ± 3 m/s | speed of sound (303.15 K, x2 = 0.4011): 1189 ± 3 m/s | speed of sound (303.15 K, x2 = 0.5085): 1187 ± 3 m/s | speed of sound (303.15 K, x2 = 0.6066): 1189 ± 3 m/s | speed of sound (303.15 K, x2 = 0.7118): 1194 ± 3 m/s | speed of sound (303.15 K, x2 = 0.8096): 1201 ± 3 m/s | speed of sound (303.15 K, x2 = 0.9049): 1211 ± 3 m/s | speed of sound (303.15 K, x2 = 0.9557): 1219 ± 3 m/s | mass density (303.15 K, x2 = 0): 800.9 ± 0.48 kg/m3 | viscosity (303.15 K, x2 = 0): 2.774 ± 0.066 mPa·s | mass density (303.15 K, x2 = 0.0495): 798.6 ± 0.48 kg/m3 | viscosity (303.15 K, x2 = 0.0495): 2.474 ± 0.059 mPa·s | mass density (303.15 K, x2 = 0.1002): 796.28 ± 0.48 kg/m3 | viscosity (303.15 K, x2 = 0.1002): 2.237 ± 0.054 mPa·s | mass density (303.15 K, x2 = 0.2019): 791.65 ± 0.48 kg/m3 | viscosity (303.15 K, x2 = 0.2019): 1.82 ± 0.044 mPa·s | mass density (303.15 K, x2 = 0.3067): 787.23 ± 0.49 kg/m3 | viscosity (303.15 K, x2 = 0.3067): 1.441 ± 0.035 mPa·s | mass density (303.15 K, x2 = 0.4011): 783.48 ± 0.49 kg/m3 | viscosity (303.15 K, x2 = 0.4011): 1.233 ± 0.03 mPa·s | mass density (303.15 K, x2 = 0.5085): 779.56 ± 0.49 kg/m3 | viscosity (303.15 K, x2 = 0.5085): 1.058 ± 0.026 mPa·s | mass density (303.15 K, x2 = 0.6066): 776.49 ± 0.49 kg/m3 | viscosity (303.15 K, x2 = 0.6066): 0.957 ± 0.024 mPa·s | mass density (303.15 K, x2 = 0.7118): 773.65 ± 0.49 kg/m3 | viscosity (303.15 K, x2 = 0.7118): 0.885 ± 0.022 mPa·s | mass density (303.15 K, x2 = 0.8096): 771.44 ± 0.49 kg/m3 | viscosity (303.15 K, x2 = 0.8096): 0.871 ± 0.022 mPa·s | mass density (303.15 K, x2 = 0.9049): 769.74 ± 0.49 kg/m3 | viscosity (303.15 K, x2 = 0.9049): 0.845 ± 0.022 mPa·s | mass density (303.15 K, x2 = 0.9557): 769.07 ± 0.49 kg/m3 | viscosity (303.15 K, x2 = 0.9557): 0.837 ± 0.021 mPa·s
